Values after ≈ are worked out from the molar mass of the structure shown. Active and inactive are the calls of the source. The calls are words filed in the database; no cut-off is given here.
Key:
Bile acid receptor [1] = target: T1, Bile acid receptor (Homo sapiens, UniProt Q96RI1); assay: Agonist activity at human GAL4-FXR-LBD expressed in HEK293T cells assessed as transcriptional activity measured after 16 to 20 hrs by luciferase reporter gene assay; assay type: cell-based
T1 sequence (Q96RI1 whole entry): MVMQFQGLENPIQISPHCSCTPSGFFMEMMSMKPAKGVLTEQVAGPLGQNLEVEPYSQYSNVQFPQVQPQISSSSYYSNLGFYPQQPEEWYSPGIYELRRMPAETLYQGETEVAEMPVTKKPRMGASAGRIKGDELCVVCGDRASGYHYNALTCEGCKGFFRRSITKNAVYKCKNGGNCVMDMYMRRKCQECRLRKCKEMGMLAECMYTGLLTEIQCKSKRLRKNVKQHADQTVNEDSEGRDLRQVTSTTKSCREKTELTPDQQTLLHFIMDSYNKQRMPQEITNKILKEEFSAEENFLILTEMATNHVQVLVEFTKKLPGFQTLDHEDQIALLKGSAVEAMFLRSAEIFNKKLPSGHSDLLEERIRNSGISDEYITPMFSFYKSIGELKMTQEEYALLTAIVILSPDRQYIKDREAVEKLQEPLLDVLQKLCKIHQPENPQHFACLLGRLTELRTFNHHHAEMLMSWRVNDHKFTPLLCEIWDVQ

Bile acid receptor [2] = target: T1, Bile acid receptor; assay: Agonist activity at GST-tagged human FXR-LBD in presence of luorescein-SRC2-2 coactivator peptide by TR-FRET assay
[3] = Toxicity in C57BL/6J mouse assessed as change in body weight at 30 mg/kg, po qd; assay type: organism-based; settings: in vivo
Mus musculus [4] = assay: Anti-nonalcoholic steatohepatitis activity against ccl4-induced C57BL/6J mouse model assessed as decrease in ALT level in liver at 30 mg/kg, po qd treated for 28 days; assay type: functional, organism-based; settings: time 28.0 day
Mus musculus [5] = assay: Anti-nonalcoholic steatohepatitis activity against ccl4-induced C57BL/6J mouse model assessed as decrease in AST level in liver at 30 mg/kg, po qd treated for 28 days; assay type: functional, organism-based; settings: time 28.0 day
Mus musculus [6] = assay: Anti-nonalcoholic steatohepatitis activity against ccl4-induced C57BL/6J mouse model assessed as reduction total cholesterol in serum at 30 mg/kg, po qd treated for 28 days; assay type: functional, organism-based; settings: time 28.0 day
Mus musculus [7] = assay: Anti-nonalcoholic steatohepatitis activity against ccl4-induced C57BL/6J mouse model assessed as clearance of liver steatosis at 30 mg/kg, po qd treated for 28 days; assay type: functional, organism-based; settings: time 28.0 day
Mus musculus [8] = assay: Anti-nonalcoholic steatohepatitis activity against ccl4-induced C57BL/6J mouse model assessed as improvement in liver inflammation at 30 mg/kg, po qd treated for 28 days; assay type: functional, organism-based; settings: time 28.0 day
Mus musculus [9] = assay: Anti-nonalcoholic steatohepatitis activity against ccl4-induced C57BL/6J mouse model assessed as improvement in fibrosis at 30 mg/kg, po qd treated for 28 days; assay type: functional, organism-based; settings: time 28.0 day
[10] = Solubility of the compound in PBS buffer at pH 7.4; assay type: physicochemical
[11] = Metabolic stability in human liver microsomes assessed as half life at 1 uM measured upto 120 mins by UPLC/MS/MS analysis; assay type: ADME, Microsome
[12] = Metabolic stability in rat liver microsomes assessed as half life at 1 uM measured upto 120 mins by UPLC/MS/MS analysis; assay type: ADME, Microsome
[13] = Metabolic stability in dog liver microsomes assessed as half life at 1 uM measured upto 120 mins by UPLC/MS/MS analysis; assay type: ADME, Canis lupus familiaris, Microsome
[14] = Metabolic stability in cynomolgus monkey liver microsomes assessed as half life at 1 uM measured upto 120 mins by UPLC/MS/MS analysis; assay type: ADME, Macaca fascicularis, Microsome

Compound `COc1cc(C(=O)O)cc2sc(N3CCN(Cc4c(-c5c(Cl)cccc5Cl)noc4C(C)C)CC34CC4)nc12` has an EC50 (Bile acid receptor [1]) of 1.24 µM.

In the case of `CC(C)c1onc(-c2c(Cl)cccc2Cl)c1CN1CCN(c2cc3cc(C(=O)O)ccc3n2C)CC1`, the EC50 (Bile acid receptor [2]) is reported as 0.067 µM and the EC50 (Bile acid receptor [1]) is reported as greater than 5 µM.

`COc1cc(C(=O)O)cc2sc(N3CCC(Cc4c(-c5c(Cl)cccc5Cl)noc4C(C)C)CC3)nc12` showed an EC50 (Bile acid receptor [2]) of 0.028 µM and an EC50 (Bile acid receptor [1]) of 0.194 µM.

With `COc1cc(C(=O)O)cc2sc(N3CCN(Cc4c(-c5c(Cl)cccc5Cl)noc4C4CC4)CC3C)nc12` (stereo not drawn) the EC50 (Bile acid receptor [2]) was 0.008 µM and the EC50 (Bile acid receptor [1]) was 0.041 µM.

With `CC[C@H]1[C@@H](O)C2[C@@H]3CC[C@H]([C@H](C)CCC(=O)O)[C@@]3(C)CC[C@@H]2[C@@]2(C)CC[C@@H](O)C[C@@H]12` (stereo partly drawn) the Activity [3] was “Non-Toxic”, the Activity (Mus musculus [4]) was “inactive” and the Activity (Mus musculus [5]) was “inactive”. For the same compound, the Activity (Mus musculus [6]) was “Active”, the Activity (Mus musculus [7]) was “Active” and the Activity (Mus musculus [8]) was “inactive”. For the same compound, the Activity (Mus musculus [9]) was “Active”.

`C[C@@H]1CN(Cc2c(-c3c(Cl)cccc3Cl)noc2C2CC2)CCN1c1nc2c(F)cc(C(=O)O)cc2s1` gave an EC50 (Bile acid receptor [2]) of 0.006 µM, an EC50 (Bile acid receptor [1]) of 0.039 µM and a solubility [10] of 129 µM (≈ 72.5 µg/mL). The half-life at 1 µM [11] was 1.47 h, the half-life at 1 µM [12] was 1.54 h and the half-life at 1 µM [13] was 6.67 h. It also gave a half-life at 1 µM [14] of 1.94 h.

Work on `CC(C)c1onc(-c2c(Cl)cccc2Cl)c1CN1CCN(c2nc3cccc(C(=O)O)c3s2)CC1` yielded an EC50 (Bile acid receptor [1]) greater than 5 µM.

For `CC(C)c1onc(-c2c(Cl)cccc2Cl)c1CN1CCN(c2nc3ccc(C(=O)O)cc3s2)CC1`, the EC50 (Bile acid receptor [1]) was 0.256 µM.

— ChEMBL document CHEMBL5346955, “Discovery of HPG1860, a Structurally Novel Nonbile Acid FXR Agonist Currently in Clinical Development for the Treatment of Nonalcoholic Steatohepatitis” (J Med Chem, 2023)
